Reference: US5292737A, “N,N'-bis(sulfonamido)-2-amino-4-iminonaphthalen-1-ones and N,N'-bis(amido)-2-amino-4-iminonaphthalen-1-ones” (Sphinx Pharmaceuticals Corporation, priority 1992, dated 1994)
Like-named read-outs stand apart in the source and are kept apart here.

Tests used:
human neutrophils = test: Neutrophil Superoxide Anion (O2) Release Assay, PMA-stimulated; format: cell-based; conditions: Homo sapiens, Neutrophil, read-out: Neutrophil Superoxide Release IC50
Text: Phorbol-12,13-myristate acetate (PMA) stimulates O2 production in human neutrophils which in turn reduces cytochrome C. Reducing cytochrome C increases absorbance and the change in optical density (OD) is proportional to the amount of O2 produced by PMA stimulation. Inhibition is expressed as an IC50 value and is the amount of test compound that will inhibit fifty percent of the PMA-stimulated respiratory outburst, i.e. O2^31 production (Lherer et al. (1981) J. Clinical lnvest. 68:1314; Roberts et al. (1982) J. Immunological Methods 49:193).
Human donor blood in 0.38% Sodium Citrate was centrifuged for 10 minutes at 160 ×g at room temperature. Platelet-rich plasma was removed leaving the buffy coat and the red cell-enriched fraction. Saline with 0.38% Sodium Citrate was added to this fraction up to the original blood volume. The enriched blood sample was diluted 1:1 (v:v) with 3% dextran T500 (Pharmacia) in normal saline and placed in a 60 cc syringe, inverted over a beaker and allowed to settle 30 minutes at room temperature.
Leukocyte-enriched plasma was removed from the syringe, placed into 50 ml polypropylene conical centrifuge tubes and underlaid with 15-20 ml Lymphocyte Separation Medium (LSM Organon Technica). The tubes were centrifuged for 40 minutes at 500×g at room temperature. The plasma, buffy coat and LSM were aspirated off the pellets which contained red blood cells and neutrophils.
The pellets were vortexed and 10 ml ice-cold 0.2% NaCl was added to lyse the red blood cells while vortexing again for 10 seconds. Ice-cold 1.6% NaCl was added while vortexing for 10 seconds. The cells were combined from multiple tubes, centrifuged 10 min at 400×g at 4° C. This red cell lysis was repeated and the resulting neutrophil pellet was washed once in Reaction HBSS (GIBCO, HBSS with Ca^++ and Mg^++,.238% HEPES, 0.1% dextrose, 0.1% RIA grade bovine serum albumin, PH 7.2). The cells were resuspended in 1/5 the original blood volume with Reaction HBSS, counted and adjusted to 4.0×10^6 cells/ml at 4° C.
Duplicate samples of neutrophils were tested in 12×75 mm polypropylene tubes containing 0.25 ml of the neutrophil suspension. Cytochrome C mix (0.25 ml, 6.0 mg/ml cytochrome C type IV (Sigma) plus 1200 U/ml bovine liver catalase (Sigma) in Reaction HBSS described above) was added. PMA was added at 2×the final concentration in 0.5 ml of Reaction HBSS. PMA final test concentration were 0.0, 0.3, 9.0, 27.0, and 81.0 ng/ml. The tubes were vortexed and incubated for 10 minutes at 37° C. with shaking. After chilling for 5 minutes at 4° C. and centrifuging for 10 minutes at 4° C., 550×g, 0.5 ml of supernatant was removed from each tube. Normal saline (0.5 ml) was added to each 0.5 ml sample of supernatant and the absorbance of each sample was read at 550 nm on a spectrophotometer (Shimadzu). The PMA concentration which gives nearly maximal stimulation of superoxide release was determined.
The test samples of neutrophils were prepared as in the PMA dose response through addition of cytochrome C mix. Then 0.4 ml of Reaction HBSS as a control or test agent at 2.5×final test concentration was added and the tubes were vortexed and incubated for 30 minutes at 37° C. with shaking. PMA (0.1 ml) was added at a 10× concentration of the final concentration determined above. The samples were incubated for 10 minutes at 37° C. with shaking, chilled for 5 minutes at 4° C., and then centrifuged for 5 minutes at 550×g at 4° C. The supernatant (0.5 ml) was diluted with 0.5 ml normal saline as above and the absorbance was then determined at 550 nm. The percent change was calculated as follows: [formula] D-sphingosine (Sigma) used as reference standard.
Human neutrophils were first isolated according to Lherer et al. ((1981) J. Clinical Invest. 68:1314) and then tested for stimulation of superoxide anion release with phorbol--12,13-myristate acetate (PMA) in a dose-dependent manner. […]

PKC isoenzyme α = target: T1, PKC isoenzyme α (Homo sapiens, UniProt P17252); test: Protein kinase C inhibition assay, PKC isoenzyme α; format: biochemical; conditions: read-out: IC50 PKC α
T1 construct: made in house; host or cells: baculovirus-insect cell expression system
Description: (§1) A protein kinase C (PKC) assay is designed to duplicate the in vivo conditions required for protein kinase C function. Therefore, pH, salt and cofactor concentrations are similar to physiologic levels. Either lysine rich histone H1 (H1) or Myelin basic protein (Mbp) are used in the assay as the phosphorylation acceptor-protein because they are readily available and serve as good substrates for protein kinase C. Enzyme was prepared from baculovirus-insect cell expression systems.
(§2) In the screening assay, phosphatidylserine (PS) and DAG were co-sonicated to form unilamellar and multilamellar vesicles. The concentration of lipids in the assay were suboptimal to maximize the detection potential of the assay for inhibitors or activators. Potential effector compounds were added to the assay in dimethylsulfoxide at four concentrations to give final inhibitor concentrations of 1, 10, 50, and 150 μM, respectively.
(§3) The assay was started with the addition of enzyme and stopped after 10 min by the addition of 25% trichloroacetic acid (TCA) and 1.0 mg/ml bovine serum albumin (BSA). The radioactive histone product was retained and washed on glass fiber filters that allow the unreacted P-ATP to pass through. The amount of phosphorylation was determined by measuring radioactivity with a scintillation counter. Controls were included in every assay to measure background activity in the absence of enzyme, activity in the absence of lipids, and the maximum enzyme activity with saturating levels of the activator lipids.
(§4) Results of the protein kinase C assay are shown in Table 4 in columns labeled α, βII, γ, δ, ε, and .zeta. which represent various PKC isoenzymes. Results are show as IC50, which is the concentration of test compound needed to inhibit 50% of the protein kinase C activity in controls.

PKC isoenzyme γ = target: T2, PKC isoenzyme γ (Homo sapiens, UniProt P05129); test: Protein kinase C inhibition assay, PKC isoenzyme γ; format: biochemical; conditions: read-out: IC50 PKC γ
T2 construct: made in house; host or cells: baculovirus-insect cell expression system
Description: as §1, §2, §3, §4

PKC isoenzyme ζ = target: T3, PKC isoenzyme ζ (Homo sapiens, UniProt Q05513); test: Protein kinase C inhibition assay, PKC isoenzyme ζ; format: biochemical; conditions: read-out: IC50 PKC .zeta.
T3 construct: made in house; host or cells: baculovirus-insect cell expression system
T3 sequence (Q05513 1-592): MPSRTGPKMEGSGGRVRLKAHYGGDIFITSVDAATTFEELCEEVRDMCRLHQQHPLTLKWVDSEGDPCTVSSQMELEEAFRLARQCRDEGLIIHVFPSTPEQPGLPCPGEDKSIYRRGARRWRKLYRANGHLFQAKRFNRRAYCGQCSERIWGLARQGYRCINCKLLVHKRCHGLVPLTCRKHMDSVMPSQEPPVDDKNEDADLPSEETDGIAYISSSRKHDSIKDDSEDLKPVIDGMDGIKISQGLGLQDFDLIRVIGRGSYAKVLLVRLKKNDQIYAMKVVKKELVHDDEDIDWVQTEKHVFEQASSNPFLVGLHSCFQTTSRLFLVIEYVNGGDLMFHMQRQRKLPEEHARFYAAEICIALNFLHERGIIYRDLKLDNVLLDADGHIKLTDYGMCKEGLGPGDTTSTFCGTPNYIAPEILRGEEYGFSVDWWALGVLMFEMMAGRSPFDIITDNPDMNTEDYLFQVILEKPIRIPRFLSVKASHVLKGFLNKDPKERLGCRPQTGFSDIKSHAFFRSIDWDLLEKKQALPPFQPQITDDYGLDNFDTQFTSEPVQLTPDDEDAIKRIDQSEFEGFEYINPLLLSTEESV
Description: as §1, §2, §3, §4

PKC isoenzyme βII = target: T4, PKC isoenzyme βII (Homo sapiens, UniProt P05771); test: Protein kinase C inhibition assay, PKC isoenzyme βII; format: biochemical; conditions: read-out: IC50 PKC βII
T4 construct: made in house; host or cells: baculovirus-insect cell expression system
Description: as §1, §2, §3, §4

PKC isoenzyme δ = target: T5, PKC isoenzyme δ (Homo sapiens, UniProt Q05655); test: Protein kinase C inhibition assay, PKC isoenzyme δ; format: biochemical; conditions: read-out: IC50 PKC δ
T5 construct: made in house; host or cells: baculovirus-insect cell expression system
Description: as §1, §2, §3, §4

PKC isoenzyme ε = target: T6, PKC isoenzyme ε (Homo sapiens, UniProt Q02156); test: Protein kinase C inhibition assay, PKC isoenzyme ε; format: biochemical; conditions: read-out: IC50 PKC ε
T6 construct: made in house; host or cells: baculovirus-insect cell expression system
T6 sequence (Q02156 1-737): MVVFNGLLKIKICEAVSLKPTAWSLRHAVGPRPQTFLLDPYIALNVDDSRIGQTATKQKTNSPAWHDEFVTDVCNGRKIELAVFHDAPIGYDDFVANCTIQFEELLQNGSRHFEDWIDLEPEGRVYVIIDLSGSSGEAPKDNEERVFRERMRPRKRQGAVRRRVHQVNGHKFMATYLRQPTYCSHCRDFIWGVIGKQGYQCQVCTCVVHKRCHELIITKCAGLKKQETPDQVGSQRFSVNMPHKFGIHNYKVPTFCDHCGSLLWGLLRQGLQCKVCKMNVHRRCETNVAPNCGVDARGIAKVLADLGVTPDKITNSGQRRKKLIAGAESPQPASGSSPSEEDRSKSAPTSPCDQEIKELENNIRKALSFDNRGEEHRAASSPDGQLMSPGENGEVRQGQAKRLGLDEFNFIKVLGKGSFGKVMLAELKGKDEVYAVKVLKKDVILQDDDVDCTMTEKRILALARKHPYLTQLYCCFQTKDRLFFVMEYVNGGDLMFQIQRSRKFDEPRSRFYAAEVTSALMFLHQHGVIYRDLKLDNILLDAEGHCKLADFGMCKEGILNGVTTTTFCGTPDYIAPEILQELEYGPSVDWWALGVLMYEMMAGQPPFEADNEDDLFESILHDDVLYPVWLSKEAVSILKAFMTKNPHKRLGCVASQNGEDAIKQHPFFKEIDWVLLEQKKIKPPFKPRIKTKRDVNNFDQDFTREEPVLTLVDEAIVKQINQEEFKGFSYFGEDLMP
Description: as §1, §2, §3, §4

T5 sequence (Q05655 whole entry): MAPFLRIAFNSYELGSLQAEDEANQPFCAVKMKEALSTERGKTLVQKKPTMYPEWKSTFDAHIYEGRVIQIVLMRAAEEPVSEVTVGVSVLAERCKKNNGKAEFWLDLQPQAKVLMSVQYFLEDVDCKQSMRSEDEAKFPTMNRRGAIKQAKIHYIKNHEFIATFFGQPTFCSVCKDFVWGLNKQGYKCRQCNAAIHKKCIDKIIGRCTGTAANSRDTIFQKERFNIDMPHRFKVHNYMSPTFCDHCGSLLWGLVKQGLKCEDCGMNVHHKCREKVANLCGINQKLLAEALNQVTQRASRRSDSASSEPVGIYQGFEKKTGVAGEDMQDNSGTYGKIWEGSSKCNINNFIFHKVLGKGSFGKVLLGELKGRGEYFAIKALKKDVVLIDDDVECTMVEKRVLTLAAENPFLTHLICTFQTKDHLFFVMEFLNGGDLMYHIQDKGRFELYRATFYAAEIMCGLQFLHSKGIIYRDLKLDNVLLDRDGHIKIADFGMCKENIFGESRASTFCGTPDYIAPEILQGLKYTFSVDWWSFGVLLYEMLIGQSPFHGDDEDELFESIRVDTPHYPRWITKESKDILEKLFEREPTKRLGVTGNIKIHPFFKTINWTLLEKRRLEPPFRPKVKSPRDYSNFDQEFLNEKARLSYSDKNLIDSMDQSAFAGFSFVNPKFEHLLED
T4 sequence (P05771 1-673 isoform P05771-2): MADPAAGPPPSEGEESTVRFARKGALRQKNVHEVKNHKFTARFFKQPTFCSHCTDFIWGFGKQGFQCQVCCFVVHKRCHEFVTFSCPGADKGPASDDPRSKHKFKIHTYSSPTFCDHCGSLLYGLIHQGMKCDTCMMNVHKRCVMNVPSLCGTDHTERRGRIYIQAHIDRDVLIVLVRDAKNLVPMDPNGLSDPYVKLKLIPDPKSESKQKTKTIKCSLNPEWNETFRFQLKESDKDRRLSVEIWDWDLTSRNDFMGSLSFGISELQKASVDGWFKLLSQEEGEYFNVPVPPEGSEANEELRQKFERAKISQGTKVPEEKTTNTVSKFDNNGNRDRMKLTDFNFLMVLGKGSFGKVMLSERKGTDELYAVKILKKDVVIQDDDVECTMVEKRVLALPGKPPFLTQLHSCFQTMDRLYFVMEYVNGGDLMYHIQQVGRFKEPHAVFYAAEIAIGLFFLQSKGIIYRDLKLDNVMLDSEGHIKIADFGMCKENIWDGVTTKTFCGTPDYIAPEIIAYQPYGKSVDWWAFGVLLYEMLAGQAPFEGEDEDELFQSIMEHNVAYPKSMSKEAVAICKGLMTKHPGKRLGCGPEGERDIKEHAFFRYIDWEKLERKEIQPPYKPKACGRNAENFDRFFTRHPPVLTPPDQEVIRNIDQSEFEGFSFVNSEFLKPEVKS

| SMILES | IC50 (human neutrophils) [µM] | IC50 (PKC isoenzyme α) [µM] | IC50 (PKC isoenzyme γ) [µM] | IC50 (PKC isoenzyme ζ) [µM] | IC50 (human neutrophils; PMA-stimulated human neutrophils) [µM] | IC50 (PKC isoenzyme βII) [µM] | IC50 (PKC isoenzyme δ) [µM] | IC50 (PKC isoenzyme ε) [µM] |
| --- | --- | --- | --- | --- | --- | --- | --- | --- |
| CCCCCCCCCCCCC/C=C/[C@@H](O)[C@@H](N)CO [D--sphingosine, D-sphingosine, reference compound] | 2.85 | – | – | – | – | – | – | – |
| O=C1C(Nc2ccc(S(=O)(=O)Nc3ncccn3)cc2)=CC(=Nc2ccc(S(=O)(=O)Nc3ncccn3)cc2)c2ccccc21 [Compound 6k] | – | 116 | 16 | 35 | 6.83 | – | – | – |
| Cc1cc(C)nc(NS(=O)(=O)c2ccc(N=C3C=C(Nc4ccc(S(=O)(=O)Nc5cc(C)cc(C)n5)cc4)C(=O)c4ccccc43)cc2)c1 [Compound 3aj] | – | 90 | 88 | > 150 | – | > 150 | > 150 | > 150 |
